Measured values published in patent US20020051808A1, “Drug delivery system involving interaction between protein or polypeptide and hydrophobic biodegradable polymer” (priority 1995, published 2002).

Legend:
Type in all cases: physicochemical
[1] = Molecular interaction of salmon calcitonin with polyglycolic acid (co-precipitation, supernatant assay); conditions: for CALCITONIN CONC.: supernatant
Protocol: The present example was intended to quantify chemical and/or physical association between salmon calcitonin and polyglycolic acid (PGA) having a molecular weight of 40,000 Daltons.
(§1) Approximately five mg of calcitonin were quantitatively weighed and placed in each of a series of 5 ml volumetric flasks. Hexafluoroacetone sesquihydrate (HFA) was added dropwise until the calcitonin dissolved completely. A 5% PGA in HFA solution was quantitatively added dropwise to each flask to provide a mass of PGA covering the range of 0 to 26.3 mg. The flasks were agitated for 5 minutes to mix the solution. Each flask was then filled to the 5 ml mark with phosphate buffer (pH 7.3). The addition of buffer precipitated the PGA plus any calcitonin that had bound with the polymer. The resulting mixture was centrifuged and the supernatant was analyzed spectrophotometrically for salmon calcitonin content. 26 mg of PGA (40,000 Mw) removed approximately 4.1 mg (83%) of salmon calcitonin.

[2] = In vitro release of salmon calcitonin from microspheres; conditions: in the phosphate buffer, pH 7.4, 37° C.
Protocol: Twenty mg of PGA-salmon calcitonin microspheres were loaded into a test tube. Ten ml of a 0.1M phosphate buffer, pH 7.4, containing EDTA were added and the tubes transferred to a 37° C. water bath. Nineteen μg salmon calcitonin/mg microspheres were released initially as a burst. This initial release was followed by a fast release of 50% of the total drug in less than two hours. At this point, a slow release followed and 22 μg salmon calcitonin/mg microspheres (22% of total drug) was released in the following 29 hours.

[3] = Molecular interaction of salmon calcitonin with poly(glycolic-Co-lactic acid); conditions: for CALCITONIN CONC.: supernatant
Protocol: as §1
The procedure of preparing the poly(glycolic-Co-lactic acid) (PGL) having a molecular weight of 50,000 microspheres was similar to that used for PGA, except the hexafluoro-2-propanol was substituted for HFA. Above 8 mg of PGL over 80% of salmon calcitonin was removed.

[4] = Molecular interaction of salmon calcitonin with polylactic acid; conditions: for CALCITONIN CONC.: supernatant
Protocol: as §1
The procedure for preparing the polylactic acid (PLA), dl-type having a molecular weight of 50,000, was similar to that used for PGA, except that methylene chloride was substituted for HFA and the calcitonin was suspended rather than dissolved in the methylene chloride. In addition, since methylene chloride and buffer are not miscible, salmon calcitonin was extracted from methylene chloride in buffer. The aqueous phase was separated, centrifuged and the supernatant was analyzed spectrophotometrically for salmon calcitonin.

Substance: salmon calcitonin
- salmon calcitonin removed ([1]; 26 mg of PGA (40,000 Mw)): approximately 4.1 mg
- salmon calcitonin removed (percent) ([1]; 26 mg of PGA (40,000 Mw)): ~83%
- % CALCITONIN REMOVED ([1]; PGA mass 0.00 mg): 1.90%
- CALCITONIN REMOVED ([1]; PGA mass 0.00 mg): 0.099 mg
- % CALCITONIN REMOVED ([1]; PGA mass 5.73 mg): 2.71%
- CALCITONIN REMOVED ([1]; PGA mass 5.73 mg): 0.125 mg
- % CALCITONIN REMOVED ([1]; PGA mass 7.81 mg): 22.3%
- CALCITONIN REMOVED ([1]; PGA mass 7.81 mg): 1.07 mg
- % CALCITONIN REMOVED ([1]; PGA mass 7.89 mg): 6.80%
- CALCITONIN REMOVED ([1]; PGA mass 7.89 mg): 0.340 mg
- % CALCITONIN REMOVED ([1]; PGA mass 10.4 mg): 54.0%
- CALCITONIN REMOVED ([1]; PGA mass 10.4 mg): 2.54 mg
- % CALCITONIN REMOVED ([1]; PGA mass 11.8 mg): 38.0%
- CALCITONIN REMOVED ([1]; PGA mass 11.8 mg): 1.71 mg
- % CALCITONIN REMOVED ([1]; PGA mass 13.2 mg): 32.7%
- CALCITONIN REMOVED ([1]; PGA mass 13.2 mg): 1.64 mg
- % CALCITONIN REMOVED ([1]; PGA mass 14.0 mg): 41.2%
- CALCITONIN REMOVED ([1]; PGA mass 14.0 mg): 2.02 mg
- % CALCITONIN REMOVED ([1]; PGA mass 15.8 mg): 53.7%
- CALCITONIN REMOVED ([1]; PGA mass 15.8 mg): 2.69 mg
- % CALCITONIN REMOVED ([1]; PGA mass 18.4 mg): 77.4%
- CALCITONIN REMOVED ([1]; PGA mass 18.4 mg): 3.87 mg
- % CALCITONIN REMOVED ([1]; PGA mass 21.0 mg): 82.1%
- CALCITONIN REMOVED ([1]; PGA mass 21.0 mg): 4.10 mg
- % CALCITONIN REMOVED ([1]; PGA mass 22.3 mg): 58.6%
- CALCITONIN REMOVED ([1]; PGA mass 22.3 mg): 2.95 mg
- % CALCITONIN REMOVED ([1]; PGA mass 23.7 mg): 72.4%
- CALCITONIN REMOVED ([1]; PGA mass 23.7 mg): 3.62 mg
- % CALCITONIN REMOVED ([1]; PGA mass 26.3 mg): 82.6%
- CALCITONIN REMOVED ([1]; PGA mass 26.3 mg): 4.13 mg
- CALCITONIN CONC. ([1]; PGA mass 0.00 mg): 1.020 mg/mL
- CALCITONIN CONC. ([1]; PGA mass 5.73 mg): 0.895 mg/mL
- CALCITONIN CONC. ([1]; PGA mass 7.81 mg): 0.746 mg/mL
- CALCITONIN CONC. ([1]; PGA mass 7.89 mg): 0.932 mg/mL
- CALCITONIN CONC. ([1]; PGA mass 10.4 mg): 0.432 mg/mL
- CALCITONIN CONC. ([1]; PGA mass 11.8 mg): 0.558 mg/mL
- CALCITONIN CONC. ([1]; PGA mass 13.2 mg): 0.673 mg/mL
- CALCITONIN CONC. ([1]; PGA mass 14.0 mg): 0.576 mg/mL
- CALCITONIN CONC. ([1]; PGA mass 15.8 mg): 0.461 mg/mL
- CALCITONIN CONC. ([1]; PGA mass 18.4 mg): 0.226 mg/mL
- CALCITONIN CONC. ([1]; PGA mass 21.0 mg): 0.175 mg/mL
- CALCITONIN CONC. ([1]; PGA mass 22.3 mg): 0.422 mg/mL
- CALCITONIN CONC. ([1]; PGA mass 23.7 mg): 0.276 mg/mL
- CALCITONIN CONC. ([1]; PGA mass 26.3 mg): 0.174 mg/mL
- time salmon calcitonin remains stable [2]: about 35 hours
- % CALCITONIN REMOVED ([3]; PGL mass 0.00 mg): 11.1%
- CALCITONIN REMOVED ([3]; PGL mass 0.00 mg): 0.591 mg
- % CALCITONIN REMOVED ([3]; PGL mass 2.64 mg): 19.9%
- CALCITONIN REMOVED ([3]; PGL mass 2.64 mg): 0.995 mg
- % CALCITONIN REMOVED ([3]; PGL mass 4.13 mg): 43.9%
- CALCITONIN REMOVED ([3]; PGL mass 4.13 mg): 2.15 mg
- % CALCITONIN REMOVED ([3]; PGL mass 5.52 mg): 51.8%
- CALCITONIN REMOVED ([3]; PGL mass 5.52 mg): 2.69 mg
- % CALCITONIN REMOVED ([3]; PGL mass 6.51 mg): 59.8%
- CALCITONIN REMOVED ([3]; PGL mass 6.51 mg): 2.87 mg
- % CALCITONIN REMOVED ([3]; PGL mass 8.45 mg): 80.8%
- CALCITONIN REMOVED ([3]; PGL mass 8.45 mg): 3.64 mg
- % CALCITONIN REMOVED ([3]; PGL mass 11.53 mg): 87.5%
- CALCITONIN REMOVED ([3]; PGL mass 11.53 mg): 4.37 mg
- % CALCITONIN REMOVED ([3]; PGL mass 13.57 mg): 92.5%
- CALCITONIN REMOVED ([3]; PGL mass 13.57 mg): 4.44 mg
- % CALCITONIN REMOVED ([3]; PGL mass 20.97 mg): 91.6%
- CALCITONIN REMOVED ([3]; PGL mass 20.97 mg): 4.95 mg
- salmon calcitonin removed (percent) ([3]; above 8 mg of PGL): over 80%
- CALCITONIN CONC. ([3]; PGL mass 0.00 mg): 0.941 mg/mL
- CALCITONIN CONC. ([3]; PGL mass 2.64 mg): 0.801 mg/mL
- CALCITONIN CONC. ([3]; PGL mass 4.13 mg): 0.550 mg/mL
- CALCITONIN CONC. ([3]; PGL mass 5.52 mg): 0.501 mg/mL
- CALCITONIN CONC. ([3]; PGL mass 6.51 mg): 0.386 mg/mL
- CALCITONIN CONC. ([3]; PGL mass 8.45 mg): 0.172 mg/mL
- CALCITONIN CONC. ([3]; PGL mass 11.53 mg): 0.125 mg/mL
- CALCITONIN CONC. ([3]; PGL mass 13.57 mg): 0.0725 mg/mL
- CALCITONIN CONC. ([3]; PGL mass 20.97 mg): 0.0908 mg/mL
- % CALCITONIN REMOVED ([4]; PLA mass 0.00 mg): 1.03%
- CALCITONIN REMOVED ([4]; PLA mass 0.00 mg): 0.055 mg
- % CALCITONIN REMOVED ([4]; PLA mass 2.68 mg): 40.8%
- CALCITONIN REMOVED ([4]; PLA mass 2.68 mg): 2.04 mg
- % CALCITONIN REMOVED ([4]; PLA mass 4.81 mg): 47.2%
- CALCITONIN REMOVED ([4]; PLA mass 4.81 mg): 2.36 mg
- % CALCITONIN REMOVED ([4]; PLA mass 10.28 mg): 55.4%
- CALCITONIN REMOVED ([4]; PLA mass 10.28 mg): 2.77 mg
- % CALCITONIN REMOVED ([4]; PLA mass 14.95 mg): 72.4%
- CALCITONIN REMOVED ([4]; PLA mass 14.95 mg): 3.62 mg
- % CALCITONIN REMOVED ([4]; PLA mass 20.40 mg): 60.3%
- CALCITONIN REMOVED ([4]; PLA mass 20.40 mg): 3.02 mg
- CALCITONIN CONC. ([4]; PLA mass 0.00 mg): 1.05 mg/mL
- CALCITONIN CONC. ([4]; PLA mass 2.68 mg): 0.592 mg/mL
- CALCITONIN CONC. ([4]; PLA mass 4.81 mg): 0.488 mg/mL
- CALCITONIN CONC. ([4]; PLA mass 10.28 mg): 0.386 mg/mL
- CALCITONIN CONC. ([4]; PLA mass 14.95 mg): 0.276 mg/mL
- CALCITONIN CONC. ([4]; PLA mass 20.40 mg): 0.417 mg/mL
